Counter-ions that a name gives are not always drawn.
Key:
sodium channel = experiment: [14C] guanidine uptake induced by veratridine in rat cerebral cortex primary neurons (sodium channel inhibitory action); format: cell-based; settings: [14C] guanidine uptake induced by 100 μM veratridine, specific uptake = portion inhibited by 1 mM mexiletine, read-out: Na Channel Inhibition IC50
Protocol: The [^14C] guanidine uptake experiment was performed by the method of Bonisch et al. (British Journal of Pharmacology 108, 436-442, 1993) with some modifications. The [^14C] guanidine was used as a sodium tracer, and the inhibitory activity on uptake of [^14C] guanidine induced by veratridine as a sodium channel activator into rat cerebral cortex primary neurons was measured.
Pregnant rats (Wistar, female, 19 days of gestation) were anesthetized with ether. The animals were bled to death by giving incision through the carotid artery. The fetuses were taken out of the pregnant rats and after ethanol sterilization, the cerebral cortex was removed from the fetuses. The cerebral cortex was digested with papain and dispersed in culture medium, followed by plating on a poly-L-lysine-coated 96-well white plate at a density of 2.5×10^5 cells/well. Incubation was performed in a CO2 incubator (37° C., 5% CO2) for 2 days.
After each well was washed once with an assay buffer (135 mM choline Cl, 5 mM KCl, 1 mM MgSO4, 5.5 mM glucose, 1 mg/mL BSA, 10 mM Hepes-Tris, pH 7.4), a fresh assay buffer was added to the well, followed by incubation at 25° C. for 10 minutes. Then, a reaction solution (a test compound, [^14C] guanidine and 100 μM, veratridine) was replaced for the buffer, followed by incubation at 25° C. for 15 minutes. The reaction was terminated by washing 3 times with a cold wash buffer (135 mM NaCl, 5 mM KCl, 1 mM MgSO4, 10 mM Hepes-Tris, pH 7.4). To each well, 17 μl of 0.1N NaOH was added. After agitation, 100 μl of scintillator was added to the well and further agitation was continued. The radioactivity was quantified by a liquid scintillation counter. In each experiment, the sodium channel-specific uptake of the whole uptake was designated as portion that was inhibited by 1 mM mexiletine. The action of the test compound on sodium channel is expressed as 50% inhibition concentration (IC50) based on the specific uptake.

[1] = system: mice with streptozotocin (STZ)-induced diabetic neuropathy; experiment: Analgesic action in mice with streptozotocin (STZ)-induced diabetic neuropathy, tail pinch test; format: in vivo; settings: male ICR mice, Day 15 after STZ, oral 30 mg/kg, 45 minutes prior to measurement, latency after minus before administration
Protocol: Representative compounds of Compound (I) of the present invention were assessed for the analgesic action in mice with streptozotocin (STZ)-induced diabetic neuropathy to confirm the effect on neuropathic pain. The assessment was performed by the method of Kamei et al. (Pharmacology Biochemistry & Behavior 39, 541-544, 1991) with some modifications.
Male ICR mice of 4 weeks old were intraperitoneally injected with 200 mg/kg weight of STZ to prepare mice with diabetic neuropathic pain. The analgesic action was assessed by the tail pinch test. […] On Day 14 following the STZ injection, a pretest was carried out to determine the response latency before the administration of a test compound. Only the animals showing not longer than 3 seconds of the response latency in the pretest were used for the test compound assessment on the following day (Day 15 after STZ injection).
In the test compound assessment, the response latency after the administration of a test compound was measured. The test compound was orally administered at a dose of 30 mg/kg, 45 minutes prior to the response latency measurement
The analgesic action of a test compound is expressed as prolongation of latency (in seconds) calculated by the formula: (response latency after administration of a test compound)−(response latency before administration of a test compound).

[2] = system: L5/L6 spinal nerve ligation rats; experiment: animal or person; settings: Rattus norvegicus, po, read-out: anti-allodynia ED50
Protocol: The the assessment was performed by the method of Kim and Chung (Pain 50, 355-363, 1992) with some modifications.
Under pentobarbital anesthesia, male SD rats of 5 or 6 weeks old were given surgery to ligate both the left L5 and L6 lumbar nerves tightly with silk threads. For the assessment of analgesic action, the von Frey hair test was adopted. That is, the animal's hindpaw was picked with hair and the lowest strength of hair for limb withdrawal response was designated as a response threshold (log gram) to mechanical stimulation. […] On the day before the assessment of a test compound, the response threshold before administration of a test compound was measured. The animals were divided into 4 to 5 groups so that differences in the mean values of response thresholds before administration among the groups and variation within groups become small. In the assessment of a test compound, the response threshold after administration of the test compound was measured. The test compound was orally given 30 minutes before measurement of the response threshold. The anti-allodynia action potency of a test compound is expressed as ED50. In the calculation of the ED50, the thresholds of ipsilateral and contralateral paws in the solvent group were designated as 0% and 100%, respectively.

SMILES	IC50 (sodium channel)	Anti-STZ-induced pain after oral administration: Latency prolongation [1]	ED50 [2]
Cc1cccc(C)c1/C=C/C12CCN(CC1)CC2 [Example 24, 4-[(E)-2-(2,6-dimethylphenyl)vinyl]quinuclidine]	10 µM	2.6 s	–
Cc1cccc(Cl)c1/C=C/C1CCNCC1 [Example 37, 4-[(E)-2-(2-chloro-6-methylphenyl)vinyl]piperidine hydrochloride]	10 µM	1.9 s	–
Cc1cccc(C)c1/C=C\C1CCNCC1 [Example 38, 4-[(Z)-2-(2,6-dimethylphenyl)vinyl]piperidine]	6 µM	3.1 s	–
Cc1cccc(C)c1/C=C/C1CCNCC1 [Example 39, 4-[(E)-2-(2,6-dimethylphenyl)vinyl]piperidine monohydrochloride]	16 µM	2.9 s	–
Cc1cc(N(C)C)cc(C)c1/C=C/C1CCNCC1 [Example 53, N,N,3,5-tetramethyl-4-[(E)-2-piperidin-4-ylvinyl]aniline]	19 µM	4.2 s	–
Cc1cccc(C)c1/C=C/C1CCCCN1 (stereo not drawn) [Example 62, 2-[(E)-2-(2,6-dimethylphenyl)vinyl]piperidine monohydrochloride]	9.2 µM	2.3 s	–
Cc1cccc(C)c1/C=C/C1CCCNCC1 (stereo not drawn) [Example 63, 4-[(E)-2-(2,6-dimethylphenyl)vinyl]azepane]	10 µM	3.3 s	–
Cc1cccc(C)c1/C=C/CC1CCNCC1 [Example 65, 4-[(2E)-3-(2,6-dimethylphenyl)prop-2-en-1-yl]piperidine]	11 µM	2.3 s	–
Cc1cccc(C)c1/C=C/C1CCCN(C)C1 (stereo not drawn) [Example 71, 3-[(E)-2-(2,6-dimethylphenyl)vinyl]-1-methylpiperidine]	7.7 µM	2.3 s	–
Cc1cccc(C)c1/C=C/C1CCN(CCN(C)C)CC1 [Example 74, (2-{4-[(E)-2-(2,6-dimethylphenyl)vinyl]piperidin-1-yl}ethyl)dimethylamine]	7.2 µM	1.8 s	–
Cc1cccc(C)c1/C=C/C1CCN(C(=O)CN2CCN(C(=O)c3cccnc3)CC2)CC1 [Example 105, 1-(2-{4-[(E)-2-(2,6-dimethylphenyl)vinyl]piperidin-1-yl}-2-oxoethyl)-4-(pyridin-3-ylcarbonyl)piperazine]	–	1.8 s	–
Cc1cccc(C)c1/C=C/C1CCN(C(=O)C(C)(C)N)CC1 [Example 108, (2-{4-[(E)-2-(2,6-dimethylphenyl)vinyl]piperidin-1-yl}-1,1-dimethyl-2-oxoethyl)amine monohydrochloride]	–	1.8 s	–
Cc1cccc(C)c1/C=C/C1CCN(C(=O)C2(N)CCC2)CC1 [Example 110, [1-({4-[(E)-2-(2,6-dimethylphenyl)vinyl]piperidin-1-yl}carbonyl)cyclobutyl]amine]	–	2.1 s	–
Cc1cccc(C)c1/C=C/C1CCN(C(=O)[C@@H]2CCCN2)CC1 [Example 114, 4-[(E)-2-(2,6-dimethylphenyl)vinyl]-1-[(2S)-pyrolidin-2-ylcarbonyl]piperidine]	–	2.4 s	–
Cc1cccc(C)c1/C=C/C1CCN(C(=O)Cn2ccnc2)CC1.Cl [Example 125, 4-[(E)-2-(2,6-dimethylphenyl)vinyl]-1-(1H-imidazol-1-ylacetyl)piperidine monohydrochloride]	–	1.6 s	–
Cc1cccc(C)c1/C=C/C1CCN(C(=O)CNC2COC2)CC1 [Example 126, N-(2-{4-[(E)-2-(2,6-dimethylphenyl)vinyl]piperidin-1-yl}-2-oxoethyl)oxetane-3-amine]	–	1.5 s	–
CC(=O)NCCNCC(=O)N1CCC(/C=C/c2c(C)cccc2C)CC1 [Example 134, N-{2-[(2-[4-[(E)-2-(2,6-dimethylphenyl)vinyl]piperidin-1-yl]-2-oxoethyl)amino]ethyl}acetamide]	–	1.7 s	–
Cc1cccc(C)c1/C=C/C1CCN(C(=O)CNCCO)CC1 [Example 135, 2-[(2-{4-[(E)-2-(2,6-dimethylphenyl)vinyl]piperidin-1-yl}-2-oxoethyl)amino]ethanol]	–	2.4 s	–
Cc1cccc(C)c1/C=C/C1CCN(C(=O)CN2CCCCC2C(N)=O)CC1 (stereo not drawn) [Example 150, 1-(2-{4-[(E)-2-(2,6-dimethylphenyl)vinyl]piperidin-1-yl}-2-oxoethyl)piperidine-2-carboxamide]	–	1.7 s	–
Cc1cccc(C)c1/C=C/C1CCN(C(=O)CN2CCC(N3CCCC3)CC2)CC1 [Example 170, 4-[(E)-2-(2,6-dimethylphenyl)vinyl]-1-[(4-pyrolidin-1-ylpiperidin-1-yl)acetyl]piperidine]	–	1.7 s	–
Cc1cccc(C)c1/C=C/C1CCN(C(=O)CN2CCOCC2)CC1 [Example 179, 4-(2-{4-[(E)-2-(2,6-dimethylphenyl)vinyl]piperidin-1-yl}-2-oxoethyl)morpholine]	–	1.8 s	–
Cc1cccc(C)c1/C=C/C1CCN(C(=O)CN2CCOC(CO)C2)CC1 (stereo not drawn) [Example 180, [4-(2-{4-[(E)-2-(2,6-dimethylphenyl)vinyl]piperidin-1-yl}-2-oxoethyl)morpholine-2-yl]methanol]	–	2.3 s	–
Cc1cccc(C)c1/C=C/C1CCN(C(=O)CN2CCCOCC2)CC1 [Example 189, 4-(2-{4-[(E)-2-(2,6-dimethylphenyl)vinyl]piperidin-1-yl}-2-oxoethyl)-1,4-oxazepane]	–	2.4 s	–
Cc1cccc(C)c1/C=C/C1CCN(C(=O)CN2CCC(N)CC2)CC1 [Example 203, 1-(2-{4-[(E)-2-(2,6-dimethylphenyl)vinyl]piperidin-1-yl}-2-oxoethyl)piperidine-4-amine]	–	1.7 s	–
Cc1cccc(C)c1/C=C/C1CCN(C(=O)CN2CCNCC2)CC1 [Example 204, 1-(2-{4-[(E)-2-(2,6-dimethylphenyl)vinyl]piperidin-1-yl}-2-oxoethyl)piperazine]	–	2.4 s	–
Cc1cccc(C)c1/C=C/C1CCN(C(=O)CN2C[C@H]3C[C@@H]2CN3)CC1 [Example 205, (1R,4R)-2-(2-{4-[(E)-2-(2,6-dimethylphenyl)vinyl]piperidin-1-yl}-2-oxoethyl)-2,5-diazabicyclo[2.2.1]heptane]	–	1.6 s	–
Cc1cccc(C)c1OCC(C)N (stereo not drawn) [Mexiletine, reference compound]	70 µM	about 3 seconds	~70 mg/kg
